Measurements reported in ChEMBL document CHEMBL1153799, “Synthesis of sialic acid derivatives having a C=C double bond substituted at the C-5 position and their glycopolymers” (Bioorg Med Chem Lett, 2009).
The source made the active and inactive calls.

Tests used:
Type in all cases: functional, organism-based
[1] = system: Influenza A virus; experiment: Inhibition of human Influenza virus A/PR/8/34 (H1N1)-mediated hemagglutinination of erythrocytes; conditions: A/Puerto Rico/8/1934(H1N1)
[2] = system: H3N2 subtype; experiment: Inhibition of human Influenza virus A/Aichi/2/68(H3N2)-mediated hemagglutinination of erythrocytes; conditions: A/Aichi/2/1968(H3N2)
[3] = system: Influenza A virus; experiment: Inhibition of duck Influenza A virus A/DK/HK/313/78(H5N3)-mediated hemagglutinination of erythrocytes

Measured: Activity

C=CC(=O)NCCCCCC(=O)N[C@H]1[C@H]([C@H](O)[C@H](O)CO)O[C@](SCCCCCCCCCCCC)(C(=O)O)C[C@@H]1O
active: [1] | [2] | [3]

C=CC(=O)NCC(=O)N[C@H]1[C@H]([C@H](O)[C@H](O)CO)O[C@](SCCCCCCCCCCCC)(C(=O)O)C[C@@H]1O
active: [1] | [2] | [3]
